Key:
[1] = 7-day toxicity study in mice; format: in vivo, BALB/c mice; set-up: key to Movement score (first line, r17) / Movement score (second line, r19): 0 = Normal; 1 = slight incoordination/decreased righting response; 2 = tiptoe walking or altered gait involving 1 limb; 3 = staggering or paralysis or tremors of 2 or more limbs; key to Coat condition score: 0 = normal/groomed; 1 = rough; 2 = ruffled/unkempt; key to Posture score: 0 = normal; 1 = slightly hunched; 2 = moderately hunched; 3 = severally hunched; conditions: for Coat condition score / Death / Movement score (first line, r17) / Movement score (second line, r19) / Posture score / Seizure: individual mice
Procedure: FIGS. 4A, 4B, and 4C show in vitro and in vivo toxicity. […] A549 and RAW 264.7 cells were grown in 96 well plates till 70% confluent. RAW 264.7 cells were differentiated into macrophages using PMA. […] The cell viability was estimated by Cell Counting Kit-8 (GlpBio, CA, USA), and absorbance was read at 450 nm using microplate reader Synergy H1 (BioTek). CC50 was calculated by GraphPad prism. […] Abs: absorbance. […] Bodyweight and other parameters were monitored daily (Table 3).
The mice were observed twice daily for general health, movement, activity, and coat condition and scored. Food and water were ad libitum. On day 7, the mice were euthanized, and necropsy was done to see any changes in the organs as compared to the normal mice by visual observation.

Cne-WT and Cne-Mut = test: Resazurin-based HTS growth assay, dose-response IC50; format: cell-based, Cryptococcus neoformans; conditions: 24 h
Procedure: HTS assay: A resazurin-based growth assay was developed for primary screening, employing two strains of Cne, the Cne-WT with natural intein and Cne-Mut, the mutant strain without intein. The assay was first standardized in 96 well formats and later optimized for 384 well plates. The HTS was done at ICCB-Longwood screening facility, Harvard University, Boston, USA. For HTS, the fungal cells were grown in SD broth overnight and diluted in SD broth to an optical density (OD) 0.5 at 600 nm. The cell suspension is further diluted 1:10 in RPMI 1640 media with 0.165 M MOPS, 2% glucose (RPMI-MOPS) so that the final OD will be 0.05. […] The conversion of resazurin to resorufin by live cells were estimated by reading fluorescence at Ex 550 nm and Em 590 nm using a plate reader (EnVision, Perkin Elmer). Additionally, the absorbance was also read at 600 nm using the plate reader (EnVision, Perkin Elmer). […] The ratio of fluorescence reading in Cne-WT and Cne-Mut was used to advance positive compounds.
Concentration series (0.02 to 50 µM) of test compounds and equalizing volume of DMSO were dispensed using a liquid handler (D300 e, Hewlett Packard) to the 384 well plates. Following the addition of Cne cell suspension, the assay plates were incubated for 24 h, and fluorescence readings of resorufin were taken as explained for single concentration screening.

[2] = target: T1, recombinant Drosophila Hh protein (C-Hh-Y) (Drosophila melanogaster, UniProt Q02936); test: Hh cholesterolysis assay; format: biochemical; conditions: CMN at up to 200 µM, 22 h
T1 construct: His tag (inferred from 'purified similarly', i.e. Ni-NTA); made in house; host or cells: E. coli LMG194
Procedure: The Tm values were calculated by Thermal shift software. […] The assay was repeated three times. […]
The hedgehog FRET protein C-Hh-Y was expressed and purified similarly, except that the protein was expressed in E. coli strain LMG194, induced with arabinose at 16° C. overnight, and the purified protein was stored in a storage buffer containing 10% glycerol and 4 mM TCEP.
Hh cholesterolysis assay: Cholesterolysis assay was done as per published methodology with modifications. […] With 50 μl reaction volume, a fixed volume of DMSO or CNM with varying concentrations (final 6.25 to 200 µM) were added and incubated at RT for 30 min. Cholesterolysis was induced by adding 1 μl stock solution of cholesterol in ethanol to each tube to attain a final concentration of 200 µM. After incubating at RT for 22 h, 20 μl of the reaction mixture was mixed with an equal volume of reducing SDS-PAGE loading buffer and loaded onto the 12% SDS-PAGE gel, followed by coomassie blue staining. Gel images were taken using the ChemiDoc imaging system (Bio-Rad). Band densities were analyzed using the Image lab software and compared with Student's t-test using the GraphPad Prism software version 9.1.0.

[3] = CMN 5 mg/kg BW oral daily 7 days
[4] = CMN 10 mg/kg BW oral daily 7 days
[5] = CMN 20 mg/kg BW oral daily 7 days
[6] = CMN 40 mg/kg BW oral daily 7 days

T1 sequence (Q02936 258-471): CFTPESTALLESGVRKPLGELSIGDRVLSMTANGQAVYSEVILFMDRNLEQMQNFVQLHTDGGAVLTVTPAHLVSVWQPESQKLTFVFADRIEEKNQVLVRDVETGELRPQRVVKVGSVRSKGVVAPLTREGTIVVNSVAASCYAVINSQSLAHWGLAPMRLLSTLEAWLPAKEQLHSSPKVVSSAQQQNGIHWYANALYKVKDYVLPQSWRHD

CNc1ccc2oc(C[C@H]3O[C@@]4(CC[C@H]3C)O[C@H]([C@H](C)C(=O)c3ccc[nH]3)[C@H](C)C[C@H]4C)nc2c1C(=O)O [CMN, calcimycin]
other morbidity ([1]; 40 mg/ml daily oral gavage, 7 days): no other morbidity was observed
loss of body weight ([1]; 40 mg/ml daily oral gavage, by day 7): 8%
activity of mice ([1]; 40 mg/ml, for 1-2 h post-dosing): slower
Coat condition score [1, 3]: 0
Death [1, 3]: 0
Movement score (first line, r17) [1, 3]: 0
Movement score (second line, r19) [1, 3]: 0
Posture score [1, 3]: 0
Seizure [1, 3]: 0
Coat condition score [1, 4]: 0
Death [1, 4]: 0
Movement score (first line, r17) [1, 4]: 0
Movement score (second line, r19) [1, 4]: 0
Posture score [1, 4]: 0
Seizure [1, 4]: 0
Coat condition score [1, 5]: 0
Death [1, 5]: 0
Movement score (first line, r17) [1, 5]: 0
Movement score (second line, r19) [1, 5]: 0
Posture score [1, 5]: 0
Seizure [1, 5]: 0
Coat condition score [1, 6]: 0
Death [1, 6]: 0
Movement score (first line, r17) [1, 6]: 1
Movement score (second line, r19) [1, 6]: 0
Posture score [1, 6]: 0
Seizure [1, 6]: 0
change in activity, appearance of fur, weight loss ([1]; daily oral gavage at 5, 10, 20 mg/ml, 7 days): no significant change
difference in IC50 (Cne-Mut vs Cne-WT) (Cne-WT and Cne-Mut): 2.5 fold
density of spliced product, hedgehog cholesterolysis [2]: did not change the density of spliced product
